Experimental data taken from US20260092071A1, “COMPOUNDS AND COMPOSITIONS AS SMARCA2/4 DEGRADERS AND USES THEREOF” (REGENTS OF THE UNIVERSITY OF MICHIGAN, priority 2022, published 2026).

Key:
SMARCA2 = SMARCA2 (Homo sapiens, UniProt P51531); assay: HiBit assay in engineered HT1080 CRISPR knock-in cell, 6 hrs (B series), SMARCA2; assay type: cell-based; conditions: 6 hrs incubation; for DC50: HT1080 CRISPR knock-in cells, read-out: SMARC A2 HT1080 HiBit DC50; for Dmax: HT-1080, HT1080 CRISPR knock-in cells, read-out: SMARC A2 HT1080 HiBit Dmax (%)
Protocol: (§1) The HiBit assay was performed using engineered HT1080 CRISPR knock-in cell utilizing the Nano-Glo HiBiT Lytic Detection System from Promega, Cat #N3040. Compounds were transferred, 25 nL DMSO or test compounds (final DMSO @ 0.1%) to intermediate plates (Corning3570) using ECHO550. Cells were seeded onto compounds at 2000 cells/25 μL/well and incubated for 6 hrs in a tissue culture incubator at 37° C. and 5% CO2. The LgBiT Protein was diluted at 1:100 and the Nano-Glo® HiBIT Lytic Substrate 1:50 into an appropriate volume of room temperature using the Nano-Glo® HiBiT Lytic Buffer. At the end of compound incubation time, 15 ul of the detection reagent was added to each well (without LgBiT for negative control wells) using the Thermo Scientific multidrop combi. The plate was shaken for 10 mins at RT using Combi. After briefly centrifugation (2000 rpm 1 mins), plate was read on Envision (Ultrasensitive luminescence model).

SMARCA4 = SMARCA4 (Homo sapiens, UniProt P51532); assay: HiBit assay in engineered HT1080 CRISPR knock-in cell, 6 hrs (B series), SMARCA4; assay type: cell-based; conditions: 6 hrs incubation; for DC50: HT1080 CRISPR knock-in cells, read-out: SMARC A4 HT1080 HiBit DC50; for Dmax: HT-1080, HT1080 CRISPR knock-in cells, read-out: SMARC A4 HT1080 HiBit Dmax(%)
Protocol: as §1

Sequence of SMARCA2 (P51531 whole entry): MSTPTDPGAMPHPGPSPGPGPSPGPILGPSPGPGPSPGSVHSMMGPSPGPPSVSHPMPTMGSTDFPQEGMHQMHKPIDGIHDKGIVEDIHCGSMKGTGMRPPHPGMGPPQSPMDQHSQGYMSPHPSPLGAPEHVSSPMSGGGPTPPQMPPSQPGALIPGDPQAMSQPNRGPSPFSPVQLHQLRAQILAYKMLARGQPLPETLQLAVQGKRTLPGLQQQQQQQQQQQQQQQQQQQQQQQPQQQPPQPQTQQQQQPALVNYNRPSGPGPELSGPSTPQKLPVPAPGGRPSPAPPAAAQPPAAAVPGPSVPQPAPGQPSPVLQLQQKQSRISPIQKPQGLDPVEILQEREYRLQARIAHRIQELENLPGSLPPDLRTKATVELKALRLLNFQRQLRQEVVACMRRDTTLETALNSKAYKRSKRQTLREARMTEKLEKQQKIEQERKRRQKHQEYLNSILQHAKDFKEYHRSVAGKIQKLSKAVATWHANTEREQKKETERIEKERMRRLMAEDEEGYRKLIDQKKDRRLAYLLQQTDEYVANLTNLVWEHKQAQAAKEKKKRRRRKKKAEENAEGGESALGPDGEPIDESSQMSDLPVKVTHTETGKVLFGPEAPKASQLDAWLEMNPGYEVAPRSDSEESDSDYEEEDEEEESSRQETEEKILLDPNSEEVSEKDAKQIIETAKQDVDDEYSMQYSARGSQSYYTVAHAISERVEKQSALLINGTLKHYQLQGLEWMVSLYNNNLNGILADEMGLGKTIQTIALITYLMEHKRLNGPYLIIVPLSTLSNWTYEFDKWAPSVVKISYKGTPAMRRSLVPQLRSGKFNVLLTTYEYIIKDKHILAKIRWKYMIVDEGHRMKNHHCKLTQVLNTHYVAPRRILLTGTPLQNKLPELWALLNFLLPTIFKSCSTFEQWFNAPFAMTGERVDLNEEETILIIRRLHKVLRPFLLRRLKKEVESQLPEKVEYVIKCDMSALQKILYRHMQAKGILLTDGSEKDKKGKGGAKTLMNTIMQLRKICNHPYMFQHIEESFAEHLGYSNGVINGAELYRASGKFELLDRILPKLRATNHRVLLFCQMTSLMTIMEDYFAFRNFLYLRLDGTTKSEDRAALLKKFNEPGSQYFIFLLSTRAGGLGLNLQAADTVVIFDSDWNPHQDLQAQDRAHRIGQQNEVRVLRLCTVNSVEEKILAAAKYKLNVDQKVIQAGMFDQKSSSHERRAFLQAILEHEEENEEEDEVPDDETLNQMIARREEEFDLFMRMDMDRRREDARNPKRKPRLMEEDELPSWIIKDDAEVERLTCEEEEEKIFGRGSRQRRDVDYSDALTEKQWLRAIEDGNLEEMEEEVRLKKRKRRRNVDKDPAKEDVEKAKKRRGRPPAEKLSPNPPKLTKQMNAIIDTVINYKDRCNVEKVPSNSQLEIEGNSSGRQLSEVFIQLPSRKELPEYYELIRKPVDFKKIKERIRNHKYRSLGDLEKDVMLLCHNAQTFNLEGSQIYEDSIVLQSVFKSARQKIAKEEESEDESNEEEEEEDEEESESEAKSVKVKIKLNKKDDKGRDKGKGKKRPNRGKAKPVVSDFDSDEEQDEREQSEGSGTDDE
Sequence of SMARCA4 (P51532 whole entry): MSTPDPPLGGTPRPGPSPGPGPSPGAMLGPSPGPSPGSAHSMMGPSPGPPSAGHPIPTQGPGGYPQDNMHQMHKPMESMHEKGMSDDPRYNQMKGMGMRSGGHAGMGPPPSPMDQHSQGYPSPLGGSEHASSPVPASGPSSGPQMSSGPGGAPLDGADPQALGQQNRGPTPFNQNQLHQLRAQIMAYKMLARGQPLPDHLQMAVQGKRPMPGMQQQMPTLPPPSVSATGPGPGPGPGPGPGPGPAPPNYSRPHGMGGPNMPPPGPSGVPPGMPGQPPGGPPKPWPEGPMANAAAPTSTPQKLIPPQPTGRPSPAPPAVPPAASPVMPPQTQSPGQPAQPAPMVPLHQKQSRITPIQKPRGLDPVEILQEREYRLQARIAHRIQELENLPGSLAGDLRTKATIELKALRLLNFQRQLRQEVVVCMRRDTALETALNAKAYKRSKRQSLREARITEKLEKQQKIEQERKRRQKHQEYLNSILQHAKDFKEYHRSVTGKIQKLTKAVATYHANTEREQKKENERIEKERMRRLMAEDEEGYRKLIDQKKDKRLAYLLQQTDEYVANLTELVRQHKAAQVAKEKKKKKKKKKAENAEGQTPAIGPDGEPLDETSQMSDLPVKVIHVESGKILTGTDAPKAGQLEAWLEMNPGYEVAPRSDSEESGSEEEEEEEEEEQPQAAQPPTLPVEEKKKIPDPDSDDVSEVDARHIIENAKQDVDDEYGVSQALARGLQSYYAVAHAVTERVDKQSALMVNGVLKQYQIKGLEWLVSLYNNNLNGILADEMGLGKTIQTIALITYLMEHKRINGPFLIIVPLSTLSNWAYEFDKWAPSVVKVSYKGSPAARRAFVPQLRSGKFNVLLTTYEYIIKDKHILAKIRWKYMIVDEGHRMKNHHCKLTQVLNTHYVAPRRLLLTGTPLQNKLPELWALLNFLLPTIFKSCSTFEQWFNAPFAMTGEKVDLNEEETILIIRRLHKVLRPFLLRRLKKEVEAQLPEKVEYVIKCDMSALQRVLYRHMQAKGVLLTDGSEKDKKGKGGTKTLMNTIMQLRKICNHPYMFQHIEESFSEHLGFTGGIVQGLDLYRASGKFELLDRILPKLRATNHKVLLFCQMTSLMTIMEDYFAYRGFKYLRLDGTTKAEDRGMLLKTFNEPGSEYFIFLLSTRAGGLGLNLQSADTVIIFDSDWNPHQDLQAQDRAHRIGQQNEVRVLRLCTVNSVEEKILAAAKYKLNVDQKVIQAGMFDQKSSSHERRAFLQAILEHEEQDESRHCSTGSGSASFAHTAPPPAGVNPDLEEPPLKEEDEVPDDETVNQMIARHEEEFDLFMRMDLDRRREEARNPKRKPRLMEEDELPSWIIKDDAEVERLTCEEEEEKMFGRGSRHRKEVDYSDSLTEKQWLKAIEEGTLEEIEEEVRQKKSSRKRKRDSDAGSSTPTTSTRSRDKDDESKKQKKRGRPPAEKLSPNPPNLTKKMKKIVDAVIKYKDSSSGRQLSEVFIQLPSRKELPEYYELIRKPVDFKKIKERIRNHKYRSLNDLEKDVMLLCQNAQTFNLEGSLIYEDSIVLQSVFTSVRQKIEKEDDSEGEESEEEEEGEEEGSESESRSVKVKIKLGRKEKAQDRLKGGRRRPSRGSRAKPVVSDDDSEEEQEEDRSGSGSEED

| Structure (SMILES) | DC50 (SMARCA2) [nM] | Dmax (SMARCA2) [%] | DC50 (SMARCA4) [nM] | Dmax (SMARCA4) [%] |
| --- | --- | --- | --- | --- |
| Cc1ncsc1-c1ccc([C@H](CCCCCN2CCC(c3ccc4c(c3)C(C)(C)c3nc(=O)c5c(Br)cccc5n3-4)CC2)NC(=O)[C@@H]2C[C@@H](O)CN2C(=O)[C@@H](NC(=O)C2(F)CC2)C(C)(C)C)cc1 [Compound B2, (2S,4R)—N—((S)-6-(4-(4-bromo-7,7-dimethyl-5-oxo-5,7-dihydroindolo[1,2-a]quinazolin-9-yl)piperidin-1-yl)-1-(4-(4-methylthiazol-5-yl)phenyl)hexyl)-1-((S)-2-(1-fluorocyclopropane-1-carboxamido)-3,3-dimethylbutanoyl)-4-hydroxypyrrolidine-2-carboxamide] | < 100 | > 90 | < 100 | > 90 |
| Cc1ncsc1-c1ccc([C@H](C)NC(=O)[C@@H]2C[C@@H](O)CN2C(=O)[C@@H](NC(=O)[C@H]2CC[C@H](CN3CCC(c4ccc5c(c4)-n4c(nc(=O)c6c(Br)cccc64)C5(C)C)CC3)CC2)C(C)(C)C)cc1 [Compound B70, (2S,4R)-1-((S)-2-((11,4S)-4-((4-(4-bromo-7,7-dimethyl-5-oxo-5,7-dihydroindolo[1,2-a]quinazolin-10-yl)piperidin-1-yl)methyl)cyclohexane-1-carboxamido)-3,3-dimethylbutanoyl)-4-hydroxy-N-((S)-1-(4-(4-methylthiazol-5-yl)phenyl)ethyl)pyrrolidine-2-carboxamide] | < 100 | > 90 | < 100 | < 50 |
| Cc1ncsc1-c1ccc(CNC(=O)[C@@H]2C[C@@H](O)CN2C(=O)[C@@H](NC(=O)C2(F)CC2)C(C)(C)C)c(OCC2CCC(N3CCC(c4ccc5c(c4)-n4c(nc(=O)c6c(Cl)cccc64)C5(C)C)CC3)CC2)c1 (stereo partly drawn) [Compound B80, (2S,4R)-N-(2-((4-(4-(4-chloro-7,7-dimethyl-5-oxo-5,7-dihydroindolo[1,2-a]quinazolin-10-yl)piperidin-1-yl)cyclohexyl)methoxy)-4-(4-methylthiazol-5-yl)benzyl)-1-((S)-2-(1-fluorocyclopropane-1-carboxamido)-3,3-dimethylbutanoyl)-4-hydroxypyrrolidine-2-carboxamide] | < 100 | > 90 | < 100 | > 90 |

The next lines start with the values.

| DC50 (SMARCA2) [nM] | Dmax (SMARCA2) [%] | DC50 (SMARCA4) [nM] | Dmax (SMARCA4) [%] | Structure (SMILES) |
| --- | --- | --- | --- | --- |
| < 100 | > 90 | 100 to 500 | 70 to 90 | Cc1ncsc1-c1ccc([C@H](C)NC(=O)[C@@H]2C[C@@H](O)CN2C(=O)[C@H](C(C)C)n2cc(CCCCN3CCC(c4ccc5c(c4)-n4c(nc(=O)c6c(Cl)cccc64)C5(C)C)CC3)nn2)cc1 [Compound B73, (2S,4R)-1-((S)-2-(4-(4-(4-(4-chloro-7,7-dimethyl-5-oxo-5,7-dihydroindolo[1,2-a]quinazolin-10-yl)piperidin-1-yl)butyl)-1H-1,2,3-triazol-1-yl)-3-methylbutanoyl)-4-hydroxy-N-((S)-1-(4-(4-methylthiazol-5-yl)phenyl)ethyl)pyrrolidine-2-carboxamide] |
| < 100 | > 90 | < 100 | > 90 | Cc1ncsc1-c1ccc([C@H](C)NC(=O)[C@@H]2C[C@@H](O)CN2C(=O)[C@H](C(C)C)n2cc(C3CCN(CCCN4CCC(c5ccc6c(c5)-n5c(nc(=O)c7c(Cl)cccc75)C6(C)C)CC4)CC3)nn2)cc1 [Compound B66, (2S,4R)-1-((S)-2-(4-(1-(3-(4-(4-chloro-7,7-dimethyl-5-oxo-5,7-dihydroindolo[1,2-a]quinazolin-10-yl)piperidin-1-yl)propyl)piperidin-4-yl)-1H-1,2,3-triazol-1-yl)-3-methylbutanoyl)-4-hydroxy-N—((S)-1-(4-(4-methylthiazol-5-yl)phenyl)ethyl)pyrrolidine-2-carboxamide] |
